This is an account of results in US8299022B2, “Analogs of ghrelin substituted at the N-terminal” (IPSEN Pharma S.A.S., priority 2006, dated 2012).

A short description of data set [1]: Rat plasma ½ life (stability in plasma in a rat model). Format: in vitro ADME. As for the experimental part: A selection of the preferred embodiments listed above was analyzed to determine stability, i.e. ½ life in plasma in a rat model using techniques known to those skilled in the art.
A further data set concerns the target T1, human GSH receptor (Homo sapiens, UniProt Q92847).
T1 construct: The full length human GHS-R was subcloned into the mammalian expression vector pcDNA 3.1; expressed in transfected cells
Put plainly: In vitro GSH receptor mediated intracellular iCa2+ mobilization (Fura-2AM, CHO-K1 cells). In kind it is cell-based. Particulars: CHO-K1 cells expressing the human receptor, 37° C. The procedure:
2A. In vitro GSH Receptor Mediated Intracellular iCa^2+Mobilization
The foregoing CHO-K1 cells expressing the human GSH receptor were harvested by incubating in a 0.3% EDTA/phosphate buffered saline solution at 25° C.; the cells were then washed 2 times by centrifugation. The washed cells were resuspended in Hank's buffered saline solution (HBSS) for loading of the fluorescent Ca^2+ indicator Fura-2AM. Cell suspensions of approximately 10^6 cells/ml were incubated with 2 μM Fura-2AM for about 30 minutes at about 25° C. Unloaded Fura-2AM was removed by centrifugation twice in HBSS and the final suspensions were transferred to a spectrofluorometer (model Hitachi F-2000® Tokyo, Japan) equipped with a magnetic stirring mechanism and a temperature-regulated cuvette holder. After equilibration to 37° C., the ghrelin analogs were added for measurement of intracellular Ca^2+ mobilization. The excitation and emission wavelengths were 340 and 510 nm, respectively. An increase in the amount of Ca^2+ measured was indicative of agonist activity of a tested peptide while a decrease in the amount (or lack of) Ca^2+ measure was indicative of antagonist activity of a tested peptide.
(Calcium flux is commonly read through the fluorescence of an indicator in the cells.)

For data set [2] the following is noted: rat, in vivo; cited from earlier work.
The conditions of data set [3]: human, in vivo; cited from earlier work.

Where two headings read alike, the source gives them in different places. Square brackets hold non-standard residues; d marks the D form. Peptide text beside a SMILES is read from it. * marks the point of attachment. Octanoyl = CCCCCCCC(=O)*; Aib = CC(C)(N)C(=O)O; Inp = O=C(O)C1CCNCC1

T1 sequence (Q92847 whole entry): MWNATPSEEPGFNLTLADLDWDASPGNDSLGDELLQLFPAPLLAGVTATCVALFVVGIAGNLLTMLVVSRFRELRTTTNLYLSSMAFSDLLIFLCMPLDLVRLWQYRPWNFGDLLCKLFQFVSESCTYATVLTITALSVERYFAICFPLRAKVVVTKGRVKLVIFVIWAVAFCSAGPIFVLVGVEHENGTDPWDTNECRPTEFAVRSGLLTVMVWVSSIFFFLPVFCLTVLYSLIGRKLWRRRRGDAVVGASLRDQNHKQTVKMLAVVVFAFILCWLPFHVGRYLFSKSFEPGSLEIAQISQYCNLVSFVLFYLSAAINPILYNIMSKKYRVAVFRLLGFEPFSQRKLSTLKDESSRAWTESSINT

Turning to `CCCCCCNC(=O)CC[C@H](NC(=O)C(C)(C)NC(=O)C1CCN(C(C)=O)CC1)C(=O)N[C@@H](Cc1ccccc1)C(=O)N[C@@H](CC(C)C)C(=O)N[C@@H](CO)C(=O)N1CCC[C@H]1C(=O)N[C@@H](CCC(=O)O)C(=O)N[C@@H](Cc1c[nH]cn1)C(=O)NC(C)(C)C(=O)N[C@@H](CCCNC(=N)N)C(=O)N[C@H](C(=O)N[C@@H](CCC(N)=O)C(=O)N[C@@H](CCC(N)=O)C(=O)N[C@@H](CCCNC(=N)N)C(=O)N[C@@H](CCCCN)C(=O)N[C@@H](CCC(=O)O)C(=O)N[C@@H](CO)C(=O)N[C@@H](CCCCN)C(=O)N[C@@H](CCCCN)C(=O)N1CCC[C@H]1C(=O)N1CCC[C@H]1C(=O)N[C@@H](C)C(=O)N[C@@H](CCCCN)C(=O)N[C@@H](CC(C)C)C(=O)N[C@@H](CCC(N)=O)C(=O)N1CCC[C@H]1C(=O)N[C@@H](CCCNC(=N)N)C(N)=O)C(C)C` [Example 1, (Ac-Inp^1, Aib^2, 10, Glu(NH-hexyl)^3)hGhrelin(1-28)-NH2], the “Rat Plasma ½ life” value in data set [1] worked out at 9.4 h. For the same compound, the “agonist/antagonist activity at the ghrelin receptor (intracellular Ca2+ mobilization)” value on human GSH receptor is “antagonistic activity”. The like results for `CCCCCCNC(=O)CC[C@H](NC(=O)C(C)(C)NC(=O)C1CCNCC1)C(=O)N[C@@H](Cc1ccccc1)C(=O)N[C@@H](CC(C)C)C(=O)N[C@@H](CO)C(=O)N1CCC[C@H]1C(=O)N[C@@H](CCC(=O)O)C(=O)N[C@@H](Cc1c[nH]cn1)C(=O)NC(C)(C)C(=O)N[C@@H](CCCNC(=N)N)C(=O)N[C@H](C(=O)N[C@@H](CCC(N)=O)C(=O)N[C@@H](CCC(N)=O)C(=O)N[C@@H](CCCNC(=N)N)C(=O)N[C@@H](CCCCN)C(=O)N[C@@H](CCC(=O)O)C(=O)N[C@@H](CO)C(=O)N[C@@H](CCCCN)C(=O)N[C@@H](CCCCN)C(=O)N1CCC[C@H]1C(=O)N1CCC[C@H]1C(=O)N[C@@H](C)C(=O)N[C@@H](CCCCN)C(=O)N[C@@H](CC(C)C)C(=O)N[C@@H](CCC(N)=O)C(=O)N1CCC[C@H]1C(=O)N[C@@H](CCCNC(=N)N)C(N)=O)C(C)C` [Example 3, (Inp^1, Aib^2, 10, Glu(NH-hexyl)^3)hGhrelin(1-28)-NH2] were, in that order, 10.6 h and “antagonistic activity”. On to `CCCCCCCC(=O)OC[C@H](NC(=O)C(C)(C)NC(=O)C1CCNCC1)C(=O)N[C@@H](Cc1ccccc1)C(=O)N[C@@H](CC(C)C)C(=O)N[C@@H](CO)C(=O)N1CCC[C@H]1C(=O)N[C@@H](CCC(=O)O)C(=O)N[C@@H](Cc1c[nH]cn1)C(=O)NC(C)(C)C(=O)N[C@@H](CCCNC(=N)N)C(=O)N[C@H](C(=O)N[C@@H](CCC(N)=O)C(=O)N[C@@H](CCC(N)=O)C(=O)N[C@@H](CCCNC(=N)N)C(=O)N[C@@H](CCCCN)C(=O)N[C@@H](CCC(=O)O)C(=O)N[C@@H](CO)C(=O)N[C@@H](CCCCN)C(=O)N[C@@H](CCCCN)C(=O)N1CCC[C@H]1C(=O)N1CCC[C@H]1C(=O)N[C@@H](C)C(=O)N[C@@H](CCCCN)C(=O)N[C@@H](CC(C)C)C(=O)N[C@@H](CCC(N)=O)C(=O)N1CCC[C@H]1C(=O)N[C@@H](CCCNC(=N)N)C(N)=O)C(C)C` [Example 8, (Inp^1, Aib^2, 10)hGhrelin(1-28)-NH2], for which the “Rat Plasma ½ life” value in data set [1] came to 1.2 h.

For the compound `CCCCCCCC(=O)OC[C@H](NC(=O)C(C)(C)NC(=O)C1CCNCC1)C(=O)N[C@@H](Cc1ccccc1)C(=O)N[C@@H](CC(C)C)C(=O)N[C@@H](CO)C(=O)N1CCC[C@H]1C(=O)NC(C)(C)C(=O)N[C@@H](Cc1c[nH]cn1)C(=O)N[C@@H](CCC(N)=O)C(=O)N[C@@H](CCCNC(=N)N)C(=O)N[C@H](C(=O)N[C@@H](CCC(N)=O)C(=O)N[C@@H](CCC(N)=O)C(=O)N[C@@H](CCCNC(=N)N)C(=O)N[C@@H](CCCCN)C(=O)N[C@@H](CCC(=O)O)C(=O)N[C@@H](CO)C(=O)N[C@@H](CCCCN)C(=O)N[C@@H](CCCCN)C(=O)N1CCC[C@H]1C(=O)N1CCC[C@H]1C(=O)N[C@@H](C)C(=O)N[C@@H](CCCCN)C(=O)N[C@@H](CC(C)C)C(=O)N[C@@H](CCC(N)=O)C(=O)N1CCC[C@H]1C(=O)N[C@@H](CCCNC(=N)N)C(N)=O)C(C)C` [Example 9, (Inp^1, Aib^2, 8)hGhrelin(1-28)-NH2], the “Rat Plasma ½ life” value in data set [1] was found to be 1.2 h.

`CCCCCCCC(=O)OC[C@H](NC(=O)[C@H](CCCCN)NC(=O)[C@H](CCCNC(=N)N)NC(=O)[C@H](CCC(N)=O)NC(=O)[C@H](CCC(N)=O)NC(=O)[C@@H](NC(=O)[C@H](CCCNC(=N)N)NC(=O)[C@H](CCC(N)=O)NC(=O)[C@H](Cc1c[nH]cn1)NC(=O)[C@H](CCC(=O)O)NC(=O)[C@@H]1CCCN1C(=O)[C@H](CO)NC(=O)[C@H](CC(C)C)NC(=O)[C@H](Cc1ccccc1)NC(=O)[C@H](COC(=O)CCCCCCC)NC(=O)C(C)(C)NC(=O)C1CCNCC1)C(C)C)C(=O)N[C@@H](CO)C(=O)N[C@@H](CCCCN)C(=O)N[C@@H](CCCCN)C(=O)N1CCC[C@H]1C(=O)N1CCC[C@H]1C(=O)N[C@@H](C)C(=O)N[C@@H](CCCCN)C(=O)N[C@@H](CC(C)C)C(=O)N[C@@H](CCC(N)=O)C(=O)N1CCC[C@H]1C(=O)N[C@@H](CCCNC(=N)N)C(N)=O` [Example 10, (Inp^1, Aib^2, Ser(n-octanoyl)^17)hGhrelin(1-28)-NH2]: in data set [1], the “Rat Plasma ½ life” value turned out to be 0.6 h. As for `CCCCCCCC(=O)OC[C@H](NC(=O)[C@H](CO)NC(=O)C1CCNCC1)C(=O)N[C@@H](Cc1ccccc1)C(=O)N[C@@H](CC(C)C)C(=O)N[C@@H](CO)C(=O)N1CCC[C@H]1C(=O)N[C@@H](CCC(=O)O)C(=O)N[C@@H](Cc1c[nH]cn1)C(=O)N[C@@H](CCC(N)=O)C(=O)N[C@@H](CCCNC(=N)N)C(=O)N[C@H](C(=O)N[C@@H](CCC(N)=O)C(=O)N[C@@H](CCC(N)=O)C(=O)N[C@@H](CCCNC(=N)N)C(=O)N[C@@H](CCCCN)C(=O)N[C@@H](COC(=O)CCCCCCC)C(=O)N[C@@H](CO)C(=O)N[C@@H](CCCCN)C(=O)N[C@@H](CCCCN)C(=O)N1CCC[C@H]1C(=O)N1CCC[C@H]1C(=O)N[C@@H](C)C(=O)N[C@@H](CCCCN)C(=O)N[C@@H](CC(C)C)C(=O)N[C@@H](CCC(N)=O)C(=O)N1CCC[C@H]1C(=O)N[C@@H](CCCNC(=N)N)C(N)=O)C(C)C` [Example 11, (Inp^1, Ser(n-octanoyl)^17)hGhrelin(1-28)-NH2], the “Rat Plasma ½ life” value in data set [1] is 0.7 h. The same measure, in the same setting: to `CCCCCCCC(=O)OC[C@H](NC(=O)[C@H](CCCCN)NC(=O)[C@H](CCCNC(=N)N)NC(=O)[C@H](CCC(N)=O)NC(=O)[C@H](CCC(N)=O)NC(=O)[C@@H](NC(=O)[C@H](CCCNC(=N)N)NC(=O)[C@H](CCC(N)=O)NC(=O)[C@H](Cc1c[nH]cn1)NC(=O)C(C)(C)NC(=O)[C@@H]1CCCN1C(=O)[C@H](CO)NC(=O)[C@H](CC(C)C)NC(=O)[C@H](Cc1ccccc1)NC(=O)[C@H](COC(=O)CCCCCCC)NC(=O)C(C)(C)NC(=O)C1CCNCC1)C(C)C)C(=O)N[C@@H](CO)C(=O)N[C@@H](CCCCN)C(=O)N[C@@H](CCCCN)C(=O)N1CCC[C@H]1C(=O)N1CCC[C@H]1C(=O)N[C@@H](C)C(=O)N[C@@H](CCCCN)C(=O)N[C@@H](CC(C)C)C(=O)N[C@@H](CCC(N)=O)C(=O)N1CCC[C@H]1C(=O)N[C@@H](CCCNC(=N)N)C(N)=O` [Example 12, (Inp^1, Aib^2,8, Ser(n-octanoyl)^17)hGhrelin(1-28)-NH2] (H-[Inp][Aib]S(Octanoyl)FLSP[Aib]HQRVQQRKS(Octanoyl)SKKPPAKLQPR-NH2; N-terminus assumed) belongs 0.7 h.

As to “H-Gly-Ser-Ser-Phe-Leu-Ser-Pro-Glu-His-Gln-Arg-Val-Gln-Gln-Arg-Lys-Glu-Ser-Lys-Lys-Pro-Pro-Ala-Lys-Leu-Gln-Pro-Arg-NH2 (H-GSS(Octanoyl)FLSPEHQRVQQRKESKKPPAKLQPR-NH2; listed as Homo sapiens) [ghrelin]”, the “apparent half-life of exogenous ghrelin” value in data set [2] was 30 min; in data set [3], 10 min.
